According to US20230331777A1, “NOVEL PEPTOID COMPOUNDS THAT BIND TO CELL RECEPTOR ACE2 AND PREVENT VIRUS ENTRY INTO CELLS” (priority 2020, published 2023):
Starred links: 1 amine or outer side, 2 acyl side, 3 side chain; linkers in the order of their positions; H or OH if unused. Positions of bridges follow the written chain, without caps; N, C: chain ends. Non-standard residues stand in square brackets, D forms with d. Residues, ends and D or L forms follow the SMILES beside them. Chains are numbered I, II in the order given. N(4-MeOBn)Gly = COc1ccc(CNCC(=O)O)cc1; N((CH2)3OiPr)Gly = CC(C)OCCCNCC(=O)O; X1 = CC(c1ccccc1)N(CC(=O)[*:2])[*:1]; NAllylGly = C=CCNCC(=O)O; Nleu = CC(C)CNCC(=O)O; Nme = COCCNCC(=O)O

Tested on: SARS-CoV-2 D614G pseudovirus
Format: cell-based, human H1299 cells

Row | Compound | SARS-CoV-2 mutant pseudovirus infection
1 | COCCN(CC(=O)NC(CCCCN)C(=O)NC(CCSC)C(=O)NCCCCC(NC(=O)C(CCSC)NC(=O)C(CCCCN)NC(=O)CN(CCOC)C(=O)CN(CC(C)C)C(=O)CN(CC(C)C)C(=O)CN(CCCOC(C)C)C(=O)CN(Cc1ccc(OC)cc1)C(=O)CNCc1ccc(OC)cc1)C(N)=O)C(=O)CN(CC(C)C)C(=O)CN(CC(C)C)C(=O)CN(CCCOC(C)C)C(=O)CN(Cc1ccc(OC)cc1)C(=O)CNCc1ccc(OC)cc1 (centres unmarked) [ACE2P2D1] (I: H-[N(4-MeOBn)Gly][N(4-MeOBn)Gly][N((CH2)3OiPr)Gly][Nleu][Nleu][Nme]KMK-NH2 / II: H-[N(4-MeOBn)Gly][N(4-MeOBn)Gly][N((CH2)3OiPr)Gly][Nleu][Nleu][Nme]KM; amide I:9-II:C; configuration not given here) | effective in inhibiting SARS-CoV-2 mutant pseudovirus infection
2 | C=CCN(CC(=O)N(CC(=O)NC(CCCCN)C(=O)NC(CCSC)C(=O)NCCCCC(NC(=O)C(CCSC)NC(=O)C(CCCCN)NC(=O)CN(C(=O)CN(CC=C)C(=O)CN(Cc1ccc(OC)cc1)C(=O)CN(C(=O)CN(CCOC)C(=O)CNCC(C)C)C(C)c1ccccc1)C(C)c1ccccc1)C(N)=O)C(C)c1ccccc1)C(=O)CN(Cc1ccc(OC)cc1)C(=O)CN(C(=O)CN(CCOC)C(=O)CNCC(C)C)C(C)c1ccccc1 (centres unmarked) [ACE2P1D1] (I: H-[Nleu][Nme][X1][N(4-MeOBn)Gly][NAllylGly][X1]KMK-NH2 / II: H-[Nleu][Nme][X1][N(4-MeOBn)Gly][NAllylGly][X1]KM; amide I:9-II:C; configuration not given here) | effective in inhibiting SARS-CoV-2 mutant pseudovirus infection
